Test results published in patent US6242481A, “Methods for the inhibition of angiogenesis with arglabin” (priority 1999, dated 2001).
In brackets after ≈: the same amount, converted by molar mass.

Tests used:
cells [1] = conditions: cited from earlier work
[2] = tested on: vascular endothelial cell; conditions: cited from earlier work
[3] = tested on: tumor growth and metastases; conditions: cited from earlier work
[4] = format: in vivo; conditions: mice; Table 1
Description: (§1) The neovascularization experiment described in Example 2 was repeated using the corneal micropockets in mice. The compounds tested were cytochalasin E, astaphiatin, arglabin, epoxycytochalasin-H, ozonolyzed cytochalasin-E, and precursor cytochalasin-E. The results of these compound's ability to inhibit angiogenesis are shown in Table 1.

[5] = tested on: corneal neovascularization (corneal micropockets); experiment: neovascularization experiment using corneal micropockets in mice; format: in vivo; conditions: mouse corneal micropockets; Table 1
Description: (§2) Pellets for implantation into rabbit corneas were made by mixing 110 μl of saline containing 12 μg of recombinant bFGF (Takeda Pharmaceuticals-Japan) with 40 mg of sucralfate (Bukh Meditec-Denmark); this suspension was added to 80 μl of 12% hydron (Interferon Sciences) in ethanol. 10 μl aliquots of this mixture was then pipetted onto teflon pegs and allowed to dry producing approximately 17 pellets. A pellet was implanted into corneal micropockets of each eye of an anesthetized female New Zealand white rabbit, 2 mm from the limbus followed by topical application of erythromycin ointment onto the surface of the cornea. The animals were fed daily from 2 days post-implantation by gastric lavage with cytochalasin E or the aldehyde methyl ester derivative of cytochalasin E suspended in 0.5% carboxymethyl cellulose or 0.5% carboxymethyl cellulose alone. The animals were examined with a slit lamp every other day in a masked manner by the same corneal specialist. The area of corneal neovascularization was determined by measuring with a reticule the vessel length (L) from the limbus and the number of clock hours (C) of limbus involved. A formula was used to determine the area of a circular band segment: C/12*3.1416 [r^2 -(r-L)^2 ] where r=6 mm the measured radius of the rabbit cornea.
as §1

[6] = tested on: Bovine capillary endothelial (BCE) cells; experiment: inhibition of bovine capillary endothelial cell proliferation (BCE), compared to NIH3T3 fibroblasts; format: cell-based; conditions: for less active (inhibition of endothelial cell proliferation): relative to cytochalasin E
Description: (§3) Bovine capillary endothelial (BCE) cells and Swiss mouse embryo fibroblast cells (NIH3T3) were isolated as previously described (Folkman, , et al., Proc. Nat. Acad. Sci USA., 76:5217-21(1979)) and maintained in DMEM supplemented with 10% heat-inactivated bovine calf serum (BCS), antibiotics, and 3 ng/ml recombinant human bFGF (Scios Nova, Mountainview,Calif.). Monolayers of the cells growing in 6-well plates were dispersed in a 0.05% trypsin solution. The cells were re-suspended with DMEM containing 10% BCS. Approximately 12,500 cells in 0.5 ml were added to each well of gelatinized 24-well tissue culture plates and incubated at 37° C. (in 10% CO2) for 24 hours. The medium was replaced with […] of fresh DMEM containing 5% BCS. Samples of cytochalasin E, cytochalasin A, and cytochalasin H were added to each well in triplicate. After 30 minutes of incubation, bFGF was added to a final concentration of 1 ng/ml. After 72 hours of incubation, cells were trypsinized, re-suspended in Hematall (Fisher Scientific, Pittsburg, Pa.) and counted with a Coulter counter.
FIG. 2 is a graph showing the inhibition of bovine capillary endothelial cell proliferation (BCE) (squares) compared to Swiss mouse embryo fibroblast cells (NIH3T3). […] The ordinate measures drug concentration in grams per milliliter.

Lewis lung carcinoma [7] = experiment: Lewis lung experiment, inhibition of tumor growth (Example 6); format: in vivo, mice (C57BI6/J); conditions: 2.0 mg/kg qd (printed 'od' for methanolyzed compound)
Description: (§4) Syngeneic C57BI6/J six-week-old male mice were injected (subcutaneous dorsum) with 1×10^6 tumor cells. Visible tumors first appeared after 3-4 days. When tumors were approximately 1500 mm^3 in size, mice were randomized into two groups. The primary tumor was completely excised in the first group and left intact in the second group after a sham operation. Although tumors from 500 mm^3 to 3000 mm^3 inhibited growth of metastases, 1500 mm^3 was the largest primary tumor that could be safely resected with high survival and no local recurrence.
The Lewis lung experiment of Example 5 was repeated using cytochalasin E and methanolyzed cytochalasin E. The results of this experiment are presented in the table below.

[8] = tested on: basic fibroblast growth factor (bFGF) driven corneal neovascularization; experiment: rabbit cornea assay, bFGF driven corneal neovascularization; format: in vivo, rabbit (New Zealand white); conditions: 2 mg/kg/day, text says subcutaneously administered (method: gastric lavage)
Description: as §2

Lewis lung carcinoma [9] = experiment: Lewis lung carcinoma tumor growth (Example 5); format: in vivo, mice (C57BI6/J); conditions: 2 mg/kg/day
Description: as §4
This experimental model gave reproducible data and the experiment described is reproducible. This tumor is labeled "Lewis lung carcinoma--low metastatic" (LLC-Low).

cells [10] = conditions: cited from earlier work; remark: listed apart in the source
[11] = tested on: Bovine capillary endothelial (BCE) cells; experiment: inhibition of bovine capillary endothelial cell proliferation (BCE), cytochalasin E vs epoxycytochalasin J; format: cell-based; conditions: compared with cytochalasin E; FIG. 3
Description: as §3, with “(BCE)” for “(BCE) cells and Swiss mouse embryo fibroblast cells (NIH3T3)”, “76:5217-21 (1979))” for “76:5217-21(1979))”, “Mountainview, Calif.).” for “Mountainview,Calif.).”, “E” for “E, cytochalasin A,”, “epoxycytochalasin J” for “cytochalasin H”
The ordinate measures drug concentration in grams per milliliter.

tumors cells = conditions: cited from earlier work
[12] = tested on: tumor-induced angiogenesis in mouse dermis; conditions: cited from earlier work

## C=C1C(C)C2C(Cc3ccccc3)NC(=O)C23OC(=O)/C=C/C(O)CCCC(C)C/C=C/C3C1O (single isomer, unassigned) [cytochalasin B]
Cells [1]
  changes in cell structure: a number of morphological changes in cell structure

## CO[C@@H]1[C@H](OC(=O)NC(=O)CCl)CC[C@]2(CO2)[C@H]1[C@@]1(C)O[C@@H]1CC=C(C)C [AGM-1470]
[2]; compared with inhibition in vivo
  activity in inhibiting tumor cell proliferation in vitro: much less active
[2]; endothelial vs tumor cell proliferation
  half-maximal inhibition of vascular endothelial cell proliferation at lower concentration than tumor cell proliferation: 4 logs
[3]
  inhibition of tumor growth and metastases in vivo: inhibits tumor growth and metastases in vivo

## C=C1C(=O)O[C@@H]2[C@H]3C(C)=CC[C@@]34O[C@@]4(C)CC[C@@H]12 [Arglabin]
[4]
  % Weight Loss: 2.69%
[5]
  % Inhibition (ability to inhibit angiogenesis): 22.72%

## C=C1C(=O)OC2C1CCC(=C)C1CC3OC3(C)C12 (stereo not drawn) [Astaphiatin]
[4]
  % Weight Loss: 6.92%
[5]
  % Inhibition (ability to inhibit angiogenesis): 33.56%

## CC(=O)O[C@@H]1/C=C/[C@](C)(O)C[C@@H](C)C/C=C/[C@H]2[C@@H]3O[C@]3(C)[C@@H](C)[C@H]3[C@H](Cc4ccccc4)NC(=O)[C@@]312 [Epoxycytochalasin-H]
[4]
  % Weight Loss: 2.46%
[5]
  % Inhibition (ability to inhibit angiogenesis): 27.35%

## CC1C2C(Cc3ccccc3)NC(=O)C2(O)C(CO)C2OC12C (stereo not drawn) [Ozonolyzed Cytochalasin-E]
[4]
  % Weight Loss: 4.00%
[5]
  % Inhibition (ability to inhibit angiogenesis): 20.00%

## C=C1C(C)C2C(Cc3ccccc3)NC(=O)C23OC(=O)/C=C/C(=O)CCCC(C)C/C=C/C3C1O (stereo not drawn) [cytochalasin A]
[6]
  less active (inhibition of endothelial cell proliferation): 1000 fold

## CC1C/C=C/C2C3OC3(C)C(C)C3C(Cc4ccccc4)NC(=O)C23OC(=O)O/C=C/C(C)(O)C1=O [cytochalasin E, (6S,7S,16R,18R)-6,7-epoxy-18-hydroxy-16-methyl-10-phenyl-21 ,23-dioxa-[13]cytochalasa-13(E), 19(E)-diene-1,17,22-trione]
[4]
  % Weight Loss: 0.00%
[6]; Bos taurus, Endothelial cell, bFGF 1 ng/ml, 72 hours
  IC50: 0.002 ng/mL (≈ 0.00404 nM)
Lewis lung carcinoma [7]
  Inhibition of Tumor Growth, T/C: 0.28
[8]
  inhibition of bFGF driven corneal neovascularization: 50%
Lewis lung carcinoma [9]
  inhibited tumor growth: 74%
[5]
  % Inhibition (ability to inhibit angiogenesis): 45.00%

## C=C1C(C)C2C(Cc3ccccc3)NC(=O)C23C(OC(C)=O)/C=C/C(C)(O)CC(C)C/C=C/C3C1O (stereo not drawn) [cytochalasin H]
[6]
  less active (inhibition of endothelial cell proliferation): 1000 fold
Cells [10]
  disaggregation of cells: produces disaggregation of cells

## C[C@H]1C/C=C/[C@H]2[C@@H]3O[C@]3(C)[C@@H](C)[C@@H]3[C@H](Cc4ccccc4)NC(=O)[C@]32[C@H](O)/C=C/[C@](C)(O)C1 [epoxycytochalasin J]
[11]
  effectiveness as inhibitor of bovine capillary endothelial cell proliferation: even more effective inhibitor

## bFGF: basic fibroblast growth factor (bFGF)
Tumors cells
  mitogen for the tumor cells in vitro: not a mitogen

## interferon alpha
[12]
  inhibition of tumor-induced angiogenesis: inhibit tumor-induced angiogenesis
